Assay results as given in US8026217B2, “Compositions and methods for treating neural anoxia and spreading depression” (Florida Atlantic University, priority 2007, dated 2011).
Entries after “also recorded” stand apart in the source; their conditions may differ. Read-outs that look alike come from different tables or passages of the source.

Key:
[1] = system: PKG; test: PKG enzyme activity assay on heads of treated flies; assay type: biochemical, Drosophila melanogaster; details: heads of sitter flies treated in vivo with volatilized agent; versus sham control
Description: PKG enzyme activity assays: PKG enzyme activity assays were conducted according to the procedure outlined in Kaun et al. (J Exp Biol. 210(Pt 20):3547-3558, 2007). Adult Drosophila were decapitated and the heads were homogenized in 25 mM 1-1 Tris (pH 7.4), 1 mM 1-1 EDTA, 2 mM 1-1 EGTA, 5 mM 1-1 β-mercaptoethanol, 0.05% Triton X-100 and protease inhibitor solution (Roche Diagnostics). Following microcentrifugation for 5 min, the supernatant was removed and those supernatants containing equal amounts of total protein were examined for PKG enzyme activity. The reaction mixture contained the following substances: 40 mM 1-1 Tris-HCl (pH 7.4), 20 mM 1-1 magnesium acetate, 0.2 mM 1-1 [γ^32P]ATP (500-1000 c.p.m. pmol−1), […] heptapeptide (RKRSRAE), (SEQ ID NO:6), (3 mM 1-1 cGMP and a highly specific inhibitor of cAMP-dependent protein kinase. The next step of the procedure involved incubating the reaction mixtures at a temperature of 30° C. for 10 min, followed by ending the reaction by spotting 70 μl of the reaction mixture onto Whatman P-81 filters. To remove any unreacted [γ^32P]ATP, these spots were then soaked with 75 mM 1-1 H3PO4 for 5 min and washed three times with 75 mM 1-1 H3PO4. Before quantifying enzyme activity, filters were rinsed with 100% ethanol and air dried. To calculate PKG enzyme activity, counts were taken in a Wallac 1409 Liquid Scintillation Counter using universal scintillation cocktail (ICN). PKG activity was presented in the figures as pmol of ^32P incorporated into the substrate min−1 mg−1 protein.

[2] = system: zebrafish; test: Zebrafish behaviour during acute anoxia; assay type: in vivo; details: whole zebrafish in anoxic water post-treatment; expected
Description: Vertebrate (zebrafish) behaviour is examined during acute anoxia. Whole zebrafish are exposed to anoxic water post-treatment with a PDE5 inhibitor, 8-bromo-GMP, KT5823, and Cantharidin. The time until the animal knocks out during anoxia is monitored.

[3] = system: mammals (mouse or rat); test: Spreading depression in mammals; assay type: in vivo; details: expected
Description: The pharmacological effects of a PDE5 inhibitor, 8-bromo-GMP, KT5823, and Cantharidin during spreading depression are examined in mammals (mouse or rat).

[4] = system: respiratory brain slices; test: Neural function in respiratory brain slices during sodium azide-induced anoxia; set-up: species or system mouse or rat; details: expected
Description: Neural function in mammals (mouse or rat) is examined pharmacologically during acute anoxia in respiratory brain slices via sodium azide, which chemically induces anoxia. Following administration of the sodium azide, the time until neural failure is monitored. This is done in the presence of a PDE5 inhibitor, 8-bromo-GMP, KT5823, and Cantharidin.

[5] = system: adult Drosophila melanogaster; assay type: in vivo; details: sitter adults, volatilized from DMSO 1 hr, 1 mM KT5823, 1 mM Cantharidin, 200 mM DCA, 10 mM 8-Bromo cGMP, 10 mM T-0156, versus DMSO sham
Description: FIG. 9 is a diagram illustrating in vivo treatment of adult Drosophila melanogaster with pharmacological agents. […] Adult sitters were exposed to various drugs known to target components of the PKG pathway (FIG. 8A). These drugs included: 10 mM T0156, a cGMP-specific phosphodiesterase-5 inhibitor, 10 mM 8-Bromo-cGMP, a PKG activator, 1 mM KT5823, a PKG inhibitor, 1 mM Cantharidin, a PP2A inhibitor, and 200 mM DCA, a K^+ channel activator. All drugs were solubilized in dimethyl sulfoxide (DMSO), where flies treated with only DMSO were used as sham controls. […] 10 μL of drug solution was applied to a crushed Kim wipe at the bottom of each 10 mL test vial. An additional Kim wipe was crushed over top of this to prevent direct contact between the fly and solution. 10 flies were then placed in the vial which was capped with a semi-permeable buzz-stopper, covered with a cut-out finger of a large latex glove to prevent chemical vapours from escaping, and incubated in the dark. The flies were subjected to the drug for 1 hr prior to each behavioural assay. In the drug combination experiments, 20 uL of DMSO was used as a control sham, and combinations of two pharmacological treatments were added as two separate 10 uL aliquots.
Whether or not fly PKG levels could be manipulated in vivo using a technique that uses volatilization of pharmacological agents was next examined. The role of these targets in vivo using sitter flies was examined by depositing pharmacological agents dissolved in DMSO on a cellulose tissue, and allowing them to volatize over minutes in an air tight vial at room temperature (FIG. 9). Adults were exposed to the volatilized compound for one hour in the dark and then assayed for locomotory resilience to acute hypoxia. Control sham animals (FIG. 7A) were treated with only DMSO. Compounds were chosen to target different components of the cGMP pathway (FIG. 8A) in tracheal smooth muscle and Chinese hamster ovary cells, where cGMP activates PKG, thereby activating PP2A, which then de-phosphorylates K^+ channels. The hypothesis that inhibition of this pathway would result in an increase in whole cell K^+ channel conductance, thereby leading to increased resilience to anoxic coma onset, was tested.
Locomotory Tolerance Assay during Acute Hypoxia: Ten flies (separated into males or females) from each of the three strains (rover [for^R], sitter [for^S] and for^s2) were selected and placed in three separate vials with food at least 24 hours before each experiment. At the time of the experiment, flies were emptied into 10 mL empty test vials covered with permeable sponge caps of equivalent thickness, allowing for consistent gas exchange. These test vials were then placed into a 600 mL beaker which was covered with parafilm, creating a closed chamber with an escape hole (1 cm diameter). The parafilm top was punctured with a needle connected to a gas tank (by a plastic hose), through which the inert gas argon was expelled. […] The needle tip was fastened to the bottom of the beaker and inserted into a larger sponge of similar texture to the vial sponge caps to ensure that gas expelled from the needle was dispersed equally throughout the beaker. Also, to ensure that all test vial positions in the beaker received equal gas flow, test vial positions were alternated every trial to reduce variability.
The experiment required exposing the test vials with 10 flies in the container to pure argon gas expelled from the tank at a flow rate of 600 cc/min+/−5%. Time of behavioural failure was recorded by observing the fly undergo a seizure, which was quickly followed by an anoxic coma.

[6] = system: NO-producing cells; test: DAF2-DA staining of NO-producing cells in locust metathoracic ganglion; assay type: cell-based, Locusta migratoria; details: 100 μM; 3 minutes at 35° C.
Description: The pattern of cell staining was similar to that of NOS staining in Schistocerca gregaria and L. migratoria (Müller and Bicker, The Journal of Neuroscience 14:7521-7528, 1994; Bullerjahn and Pflüger, Zoology 106:3-17, 2003). The scale in the Figure is 500 μm. FIGS. 4B and 4C show fluorescing cell bodies at room temperature (20° C.) (4B) and immediately following exposure to heat (35° C.) (4C) (scale for both Figures is 50 μm). The change in fluorescence following exposure to heat was quantified as shown in FIG. 4D (3 minutes at 35° C., shown by bar above x-axis). The difference between cell body fluorescence and background more than doubled immediately following exposure to heat (t=5 minutes). […] Fluorescence was measured from the brightest 3 cells from each ganglion. [Sample sizes: Control, n=7; LNAME, n=4; and No heat, n=3. Asterisks indicate significant differences of control from LNAME and No heat groups (Tukey, p<0.05).]

[7] = system: metathoracic ganglion of the locust; test: SD-like events evoked by high-potassium (KCl 150 mM) injection into the locust metathoracic ganglion; assay type: in vivo, Locusta migratoria; details: for time to recover ventilatory central pattern generator (vCPG) function following SD: Example 5, NO synthase inhibitor and NO donors, FIG. 4G
Description: CSD is increasingly accepted as a primary causative agent for migraine, particularly migraine with aura. The cellular mechanisms underlying stroke, seizures and migraine are not exclusive to mammals. Using the locust (Locusta migratoria), a proven model for examining the effects of heat stress on CNS activity, a rapid rise in extracellular potassium ([K^+]o) during anoxia/hypoxia, extreme heat, and ouabain exposure was monitored. This phenomenon has all the characteristics of SD in the neocortex of mammals. Since the physiological mechanisms observed in locust SD-like events are similar to that of mammals, findings in this insect model are predictably transferable to mammals, including humans. In the locust, model SD-like events were triggered in the CNS by injecting small volumes of saline containing high levels of potassium ions (KCl at 150 mM instead of the nominal resting level of 10 mM) into the metathoracic ganglion. Potassium-sensitive microelectrodes were used to measure SD generated by KCl injections, while manipulating the PKG pathway.
This tissue response is characterised by a transient surge and subsequent clearance of potassium ions in the extracellular space ([K^+]o). During SD-like events ventilatory motor activity ceases. This was monitored using an electromyographic electrode positioned on an abdominal muscle used for ventilation (Ventilatory EMG). Upon restoration of the potassium ion gradient the neural activity recovered and preparations began to ventilate again.
The first injection was used as a control. Following the first injection, animals were allowed 10 minutes of perfusion with standard locust saline before treatment with bath applications of selected drugs (i.e. KT5823, T-0156). All drugs were dissolved in a minimum amount of DMSO before further dilution with standard locust saline to a concentration of 10^−5M and were superfused over the metathoracic ganglion for 10 minutes before the second injection. A total of 20 minutes elapsed between the first and second injection in all experiments. As shown in Figure (Bi), duration at half the maximum amplitude was used to characterize the severity of SD-like events. A significant increase was observed following the second injection when compared to the first in control animals. […] Heat shock (HS) preconditioning reduced SD duration evoked by the first and second injections. […] Numbers in the histogram bars indicate number of preparations tested. Asterisks indicate statistically significant differences between the first and second injection ([…]).
Motor pattern activity was not measured for T-0156/Cantharidin treatments. […] Figure (Cii) illustrates the drug effects by showing the percentage difference in rhythm recovery time (second injection relative to first injection).
Single SD events were evoked by injection of saline (50 nL) containing elevated potassium chloride (150 mM vs. 10 mM) directly into the metathoracic ganglion. […] During SD, ventilatory motor activity monitored electromyographically (EMG) ceased and recovered upon restoration of the potassium ion gradient. The duration of the [K^+]o wave at half its maximal amplitude and the time from failure of motor patterning to the recovery of a ventilatory rhythm were measured. […] Numbers in brackets represent sample size.
As in Example 3, SD events were evoked by injection of saline (50 nL) containing elevated potassium chloride (150 mM vs. 10 mM) directly into the metathoracic ganglion of locust preparations.

SMILES	head PKG enzyme activity [1]	time to anoxic coma onset during acute hypoxia, single agents [5]	time to recover ventilatory central pattern generator (vCPG) function following SD [7]	further results
CC12C(=O)OC(=O)C1(C)C1CCC2O1 (centres unmarked) [Cantharidin, Hexahydro-3a,7a-dimethyl-4,7-epoxyisobenzofuran-1,3-dione]	PKG activity levels did not differ; also recorded: showed no significant effects on PKG enzyme activity levels compared to sham controls	demonstrated significant resilience to anoxic coma	–	time until the animal knocks out during anoxia [2]: neuroprotection and prolonged behaviour when subject to anoxia; SD-like events and neural function [3]: neuroprotection and reduces SD-like events thereby prolonging neural function; time until neural failure [4]: neuroprotection and prolonged neural function when subject to anoxia
COC(=O)[C@@H](N)CCCNC(=N)N[N+](=O)[O-] [LNAME, N(G)-nitro-L-arginine methyl ester]	–	–	dramatically reduced the length of time taken to recover ventilatory central pattern generator (vCPG) function following SD	DAF2-DA cell body fluorescence in response to heat stress [6]: prevented the increased fluorescence in response to heat stress
CC(=O)N[C@@H](C(=O)O)C(C)(C)SN=O [SNAP, S-nitroso-N-acetyl-D-penicillamine]	–	–	did not exacerbate recovery times beyond that of control preparation times	–
N[C@@H](CCC(=O)N[C@@H](CSN=O)C(=O)NCC(=O)O)C(=O)O [SNOG, S-nitrosoglutathione]	–	–	did not exacerbate recovery times beyond that of control preparation times	–
COC(=O)c1c(-c2cc(OC)c(OC)c(OC)c2)c2ccnc(OCc3ncccn3)c2c(=O)n1Cc1ccnc(C)c1 [T-0156]	significant increase in PKG activity levels compared with sitter control shams; also recorded: demonstrated significant effects compared to that of the sham control	exhibited significant sensitivity to anoxic coma	–	length of time to recover ventilatory motor pattern activity after SD ([7]; Example 1, bath application 10^-5 M for 10 minutes before second KCl injection): took significantly longer to recover motor pattern activity after the second injection; recovery time of ventilatory rhythm, second event versus first ([7]; Example 3, drug applied for 10 minutes prior to second injection, FIG. 3D): The recovery time was increased; time to anoxic coma onset during acute hypoxia, single agents ([5]; listed as T0156): increased sensitivity to acute hypoxia
